According to ChEMBL document CHEMBL1154580, “Identification and total synthesis of a novel dimethylated fatty acid from the Caribbean sponge Calyx podatypa” (2000):
In brackets after ≈: the same amount, converted by molar mass.

Tested on: Streptococcus mutans
Assay: Antimicrobial activity against Streptococcus mutans MT509
Format: functional

SMILES	MIC
CC(C)CCCCCCCCCCCC(=O)O	3.13 µg/mL (≈ 12.9 µM)
CCC(C)CCCCCCCCCCC(=O)O (configuration not stated)	3.13 µg/mL (≈ 12.9 µM)
